Where two headings read alike, the source gives them in different places.
Key:
[1] = tested on: subjects with OSA; assay: Published studies on the effect of single agent acetazolamide on AHI, with linear trend line dose-response; type: in vivo, human; conditions: from linear trend line of published studies
Excerpt: These studies tested a range of doses across a selection of different patient cohorts.

[2] = tested on: subjects with OSA; conditions: cited from earlier work; for Reduction in AHI (%): relative to baseline or placebo
[3] = after ingestion; cited from earlier work
[4] = tested on: subjects with OSA; assay: Published study (Carley et al. 2018) on the effect of single agent dronabinol on AHI, with trend line dose-response; type: in vivo, human; conditions: from trend line of published data

## CC(=O)Nc1nnc(S(N)(=O)=O)s1 [Acetazolamide, acetazolamide]
[1]; acetazolamide 125 mg
  Predicted AHI reduction (%), single agent: 23.4%
[1]; acetazolamide 250 mg
  Predicted AHI reduction (%), single agent: 27.1%
[1]; acetazolamide 500 mg
  Predicted AHI reduction (%), single agent: 34.5%
[2]; 250 mg/day, Chin, 1992, baseline/placebo AHI 38.9
  Acetazolamide AHI: 29.6
[2]; 250 mg/day, Chin, 1992
  Reduction in AHI (%): 23.9%
[2]; 250 mg/day, Tojima, 1988, baseline/placebo AHI 25
  Acetazolamide AHI: 18.1
[2]; 250 mg/day, Tojima, 1988
  Reduction in AHI (%): 27.6%
[2]; 351.2 mg/day, Inoue, 1999
  Reduction in AHI (%): 29.5%
[2]; 375 mg/day, Inoue, 1987, baseline/placebo AHI 26.9
  Acetazolamide AHI: 17.3
[2]; 375 mg/day, Inoue, 1987
  Reduction in AHI (%): 35.7%
[2]; 750 mg/day, Eskandari, 2018, baseline/placebo AHI 38
  Acetazolamide AHI: 23
[2]; 750 mg/day, Eskandari, 2018
  Reduction in AHI (%): 39.5%
[2]; 1000 mg/day, Edwards, 2012, baseline/placebo AHI 49.6
  Acetazolamide AHI: 24
[2]; 1000 mg/day, Edwards, 2012
  Reduction in AHI (%): 51.6%
[2]; 1000 mg/day, Whyte, 1988, baseline/placebo AHI 50
  Acetazolamide AHI: 26
[2]; 1000 mg/day, Whyte, 1988
  Reduction in AHI (%): 48%
[3]
  Time to mean peak plasma concentrations: about 2 hours

## CCCCCc1cc(O)c2c(c1)OC(C)(C)C1CCC(C)=CC21 (stereo not drawn) [Dronabinol]
[4]; dronabinol 2.5 mg/day
  Predicted AHI reduction (%), single agent: 23.4%
[4]; dronabinol 5 mg/day
  Predicted AHI reduction (%), single agent: 26.5%
[3]
  Time to peak effects: 2 to 4 h
  Time to significant concentrations in plasma/blood: 30 to 60 min

— patent US12636295B2, “Compositions and methods for the treatment of obstructive sleep apnoea (OSA)” (Incannex Healthcare Limited, priority 2020, dated 2026)
